Data published in US6436981B1 (dated 2002).

SMILES	melting point [°C]
CON=C(C(C)=NN=Cc1ccccc1-n1c(OC)nn(C)c1=O)c1cccc(C(F)(F)F)c1	157 to 161
CO/N=C(C)/C(=N/N=C/c1ccccc1-n1c(OC)nn(C)c1=O)C1CC1	146 to 148
